Assay: Spectroscopic measurements (absorption, emission, quantum yield, extinction coefficient)
Assay type: physicochemical
Settings: BDNCA library; for Abs: absorption; for Flu-Abs: difference emission minus absorption; for ε: extinction coefficient, in M-1 cm-1 (unit assumed); for Flu: fluorescence emission

SMILES	Qunt. Yield	Abs	Flu-Abs	ε	Flu
CC1=CC(/C=C/c2ccoc2)=[N+]2C1=C(c1ccc(NC(=O)CCl)cc1)c1cccn1[B-]2(F)F [BDNCA-71]	0.05	550 nm	20	43,661	570
CC1=CC(/C=C/c2nccn2C)=[N+]2C1=C(c1ccc(NC(=O)CCl)cc1)c1cccn1[B-]2(F)F [BDNCA-72]	0.02	573 nm	45	17,849	618
CC1=CC(/C=C/c2cc(Br)ccc2O)=[N+]2C1=C(c1ccc(NC(=O)CCl)cc1)c1cccn1[B-]2(F)F [BDNCA-73]	0.04	564 nm	21	27,185	585
CC1=CC(/C=C/c2ccc(OC(C)(C)C)cc2)=[N+]2C1=C(c1ccc(NC(=O)CCl)cc1)c1cccn1[B-]2(F)F [BDNCA-75]	0.09	562 nm	38	35,973	600
CCCc1ccc(/C=C/C2=[N+]3C(=C(c4ccc(NC(=O)CCl)cc4)c4cccn4[B-]3(F)F)C(C)=C2)cc1 [BDNCA-77]	0.09	559 nm	22	45,034	581
COc1cc(OC)c(/C=C/C2=[N+]3C(=C(c4ccc(NC(=O)CCl)cc4)c4cccn4[B-]3(F)F)C(C)=C2)c(OC)c1 [BDNCA-82]	0.04	582 nm	50	18,398	632
COc1cccc(/C=C/C2=[N+]3C(=C(c4ccc(NC(=O)CCl)cc4)c4cccn4[B-]3(F)F)C(C)=C2)c1OC [BDNCA-83]	0.12	557 nm	20	40,366	577
CC1=CC(/C=C/C=C(c2ccccc2)c2ccccc2)=[N+]2C1=C(c1ccc(NC(=O)CCl)cc1)c1cccn1[B-]2(F)F [BDNCA-85]	0.08	583 nm	31	49,977	614
CC1=CC(/C=C/c2ccc(-c3ccccn3)cc2)=[N+]2C1=C(c1ccc(NC(=O)CCl)cc1)c1cccn1[B-]2(F)F [BDNCA-88]	0.11	566 nm	18	27,185	584
Cc1cc(/C=C/c2ccc3c4c(cccc24)CC3)n2c1C(c1ccc(NC(=O)CCl)cc1)=C1C=CC=[N+]1[B-]2(F)F [BDNCA-89]	0.08	580 nm	54	33,501	634
CC1=CC(/C=C/c2ccc(OCc3ccccc3)cc2)=[N+]2C1=C(c1ccc(NC(=O)CCl)cc1)c1cccn1[B-]2(F)F [BDNCA-90]	0.04	563 nm	30	20,046	593
Cc1cc(/C=C/c2ccc(N(C)CCO)cc2)n2c1C(c1ccc(NC(=O)CCl)cc1)=C1C=CC=[N+]1[B-]2(F)F [BDNCA-91]	weak	559 nm	–	34,050	weak
COc1cc(/C=C/C2=[N+]3C(=C(c4ccc(NC(=O)CCl)cc4)c4cccn4[B-]3(F)F)C(C)=C2)cc(OC)c1OC(C)=O [BDNCA-92]	0.01	555 nm	24	15,652	579
CC1=CC(/C=C/c2cn(C)c3ccccc23)=[N+]2C1=C(c1ccc(NC(=O)CCl)cc1)c1cccn1[B-]2(F)F [BDNCA-94]	0.02	548 nm	114	23,890	662
COc1cc(/C=C/C2=[N+]3C(=C(c4ccc(NC(=O)CCl)cc4)c4cccn4[B-]3(F)F)C(C)=C2)cc(OC)c1O [BDNCA-95]	0.01	574 nm	6	31,579	580
CC1=CC(/C=C/C=C/c2ccc(N(C)C)cc2)=[N+]2C1=C(c1ccc(NC(=O)CCl)cc1)c1cccn1[B-]2(F)F [BDNCA-96]	weak	622 nm	–	50,801	weak
CC1=CC(/C=C/c2ccc(Br)s2)=[N+]2C1=C(c1ccc(NC(=O)CCl)cc1)c1cccn1[B-]2(F)F [BDNCA-100]	0.10	574 nm	23	48,879	597
CC1=CC(/C=C/c2ccc(Oc3ccccc3)cc2)=[N+]2C1=C(c1ccc(NC(=O)CCl)cc1)c1cccn1[B-]2(F)F [BDNCA-101]	0.20	562 nm	27	89,245	589
CC1=CC(/C=C/c2ccc3ccc4cccc5ccc2c3c45)=[N+]2C1=C(c1ccc(NC(=O)CCl)cc1)c1cccn1[B-]2(F)F [BDNCA-103]	0.04	598 nm	82	28,558	680

Source: US9423396B2, “Bodipy structure fluorescence probes for diverse biological applications” (National University of Singapore, priority 2011, dated 2016)
